Reference: ChEMBL document CHEMBL4480432, “Expansion of a novel lead targeting M. tuberculosis DHFR as antitubercular agents” (Bioorg Med Chem, 2019)
Converted amounts (≈) assume the structure as drawn.

Each compound was assayed on DHFR (human versus Mycobacterium tuberculosis H37Rv) (assay: Selectivity index, ratio of IC50 for human DHFR to IC50 for Mycobacterium tuberculosis H37Rv DHFR expressed in Escherichia coli BL21(DE3)). Conditions: human and Mycobacterium tuberculosis H37Rv; read-out: Ratio IC50.
Type: toxicity

Compound | selectivity ratio
CC(=O)c1c(C)n(Cc2ccccc2)c2ccc(OCc3cn(-c4cccc(Cl)c4)nn3)cc12 | 4.17

These compounds were tested on Mycobacterium tuberculosis (assay: microbe, parasite or virus in culture). Conditions: H37Rv ATCC 27294, 168 h.
Description: Antitubercular activity against Mycobacterium tuberculosis H37Rv ATCC 27294 after 7 days by microplate alamar blue method

Compound | MIC [µM]
CC[C@@H](CO)NCCN[C@@H](CC)CO [ETHAMBUTOL] | 16.5 (≈ 3.37 µg/mL)
CC(=O)c1c(C)n(Cc2ccccc2)c2ccc(OCc3cn(-c4ccc(C(F)(F)F)cc4)nn3)cc12 | 49.5 (≈ 25 µg/mL)
NNC(=O)c1ccncc1 [ISONIAZID] | 0.73 (≈ 0.1 µg/mL)
CC(=O)c1c(C)n(Cc2ccccc2)c2ccc(OCc3cn(-c4ccc(C)c(C)c4)nn3)cc12 | 53.8 (≈ 25 µg/mL)
O=C(O)c1cn(C2CC2)c2cc(N3CCNCC3)c(F)cc2c1=O [CIPROFLOXACIN] | 4.7 (≈ 1.56 µg/mL)
CCOC(=O)c1c(C)n(Cc2ccccc2)c2ccc(OCc3cn(-c4ccc(C#N)cc4)nn3)cc12 | 12.7 (≈ 6.25 µg/mL)
CO[C@H]1/C=C/O[C@@]2(C)Oc3c(C)c(O)c4c(O)c(c(/C=N/N5CCN(C)CC5)c(O)c4c3C2=O)NC(=O)/C(C)=C\C=C\[C@H](C)[C@H](O)[C@@H](C)[C@@H](O)[C@@H](C)[C@H](OC(C)=O)[C@@H]1C [RIFAMPIN] | 0.25 (≈ 0.206 µg/mL)
CCOC(=O)c1c(C)n(Cc2ccccc2)c2ccc(OCc3cn(-c4ccc([N+](=O)[O-])cc4)nn3)cc12 | 48.9 (≈ 25 µg/mL)
CCOC(=O)c1c(C)n(Cc2ccccc2)c2ccc(OCc3cn(-c4ccc(C)cc4)nn3)cc12 | 26 (≈ 12.5 µg/mL)
CC(=O)c1c(C)n(Cc2ccccc2)c2ccc(OCc3cn(-c4ccc(F)cc4)nn3)cc12 | 55 (≈ 25 µg/mL)
COc1ccccc1-n1cc(COc2ccc3c(c2)c(C(C)=O)c(C)n3Cc2ccccc2)nn1 | 53.6 (≈ 25 µg/mL)
CCc1ccc(-n2cc(COc3ccc4c(c3)c(C(C)=O)c(C)n4Cc3ccccc3)nn2)cc1 | 26.9 (≈ 12.5 µg/mL)
CCOC(=O)c1c(C)n(Cc2ccccc2)c2ccc(OCc3cn(-c4cccc(Cl)c4)nn3)cc12 | 50.2 (≈ 25.1 µg/mL)
CC(=O)c1c(C)n(Cc2ccccc2)c2ccc(OCc3cn(-c4ccc(Cl)cc4)nn3)cc12 | 53.1 (≈ 25 µg/mL)
CCOC(=O)c1c(C)n(Cc2ccccc2)c2ccc(OCc3cn(-c4ccc(CC)cc4)nn3)cc12 | 50.6 (≈ 25 µg/mL)
CCOC(=O)c1c(C)n(Cc2ccccc2)c2ccc(OCc3cn(-c4ccc(Br)cc4)nn3)cc12 | 45.9 (≈ 25.1 µg/mL)
CCOC(=O)c1c(C)n(Cc2ccccc2)c2ccc(OCc3cn(-c4ccccc4OC)nn3)cc12 | 50.4 (≈ 25 µg/mL)
CC(=O)c1c(C)n(Cc2ccccc2)c2ccc(OCc3cn(-c4cccc(Cl)c4)nn3)cc12 | 6.64 (≈ 3.13 µg/mL)
CC(=O)c1c(C)n(Cc2ccccc2)c2ccc(OCc3cn(-c4ccc([N+](=O)[O-])cc4)nn3)cc12 | 12.9 (≈ 6.21 µg/mL)
CC(=O)c1c(C)n(Cc2ccccc2)c2ccc(OCc3cn(-c4ccc(C)cc4)nn3)cc12 | 55.5 (≈ 25 µg/mL)
CC(=O)c1c(C)n(Cc2ccccc2)c2ccc(OCc3cn(-c4ccc(C#N)cc4)nn3)cc12 | 54.2 (≈ 25 µg/mL)
CN(Cc1cnc2nc(N)nc(N)c2n1)c1ccc(C(=O)N[C@@H](CCC(=O)O)C(=O)O)cc1 [METHOTREXATE] | 3.38 (≈ 1.54 µg/mL)
CCOC(=O)c1c(C)n(Cc2ccccc2)c2ccc(OCc3cn(-c4ccc(C(F)(F)F)cc4)nn3)cc12 | 46.8 (≈ 25 µg/mL)
CCOC(=O)c1c(C)n(Cc2ccccc2)c2ccc(OCc3cn(-c4ccc(F)cc4)nn3)cc12 | 51.6 (≈ 25 µg/mL)

The compounds below were run against T1, Dihydrofolate reductase (Mycobacterium tuberculosis, UniProt P9WNX1) (assay: Inhibition of Mycobacterium tuberculosis H37Rv DHFR expressed in Escherichia coli BL21(DE3) assessed as reduction in consumption of NADPH using DHF as substrate preincubated for 1 min followed by DHF addition and measured for 2 mins by spectrophotometric method). Conditions: not given.
T1 sequence (P9WNX1 whole entry): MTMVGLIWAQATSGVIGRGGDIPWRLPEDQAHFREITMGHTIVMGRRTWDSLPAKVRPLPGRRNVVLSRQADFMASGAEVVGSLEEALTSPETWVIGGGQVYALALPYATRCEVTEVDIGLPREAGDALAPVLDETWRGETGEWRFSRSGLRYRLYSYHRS

Compound | IC50 [µM]
CC(=O)c1c(C)n(Cc2ccccc2)c2ccc(OCCCC(=O)O)cc12 | 25
CC(=O)c1c(C)n(Cc2ccccc2)c2ccc(OCc3cn(-c4cccc(Cl)c4)nn3)cc12 | 43.1

The compounds below were run against T2, Dihydrofolate reductase (Homo sapiens, UniProt P00374) (assay: Inhibition of human DHFR assessed as reduction in consumption of NADPH using DHF as substrate preincubated for 1 min followed by DHF addition and measured for 2 mins by spectrophotometric method). Conditions: not given.
T2 sequence (P00374 whole entry): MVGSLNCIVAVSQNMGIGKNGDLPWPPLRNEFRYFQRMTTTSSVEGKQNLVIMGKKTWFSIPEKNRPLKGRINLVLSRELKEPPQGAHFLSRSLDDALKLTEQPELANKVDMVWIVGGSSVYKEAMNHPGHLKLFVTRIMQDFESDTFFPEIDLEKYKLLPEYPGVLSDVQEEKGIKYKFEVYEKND

Compound | IC50 [µM]
CC(=O)c1c(C)n(Cc2ccccc2)c2ccc(OCc3cn(-c4cccc(Cl)c4)nn3)cc12 | 180
